Data: ChEMBL document CHEMBL5214911, “Chemical update on the potential for serotonin 5-HT6 and 5-HT7 receptor agents in the treatment of Alzheimer's disease” (Bioorg Med Chem Lett, 2021)

How the values were obtained:
[1] = target: 5-hydroxytryptamine receptor 7 (Homo sapiens, UniProt P34969); experiment: Binding affinity to 5-HT7R (unknown origin) assessed as inhibition constant
[2] = target: T1, 5-hydroxytryptamine receptor 1A (Homo sapiens, UniProt P08908); experiment: Binding affinity to 5-HT1A (unknown origin) assessed as inhibition constant
T1 sequence (P08908 whole entry): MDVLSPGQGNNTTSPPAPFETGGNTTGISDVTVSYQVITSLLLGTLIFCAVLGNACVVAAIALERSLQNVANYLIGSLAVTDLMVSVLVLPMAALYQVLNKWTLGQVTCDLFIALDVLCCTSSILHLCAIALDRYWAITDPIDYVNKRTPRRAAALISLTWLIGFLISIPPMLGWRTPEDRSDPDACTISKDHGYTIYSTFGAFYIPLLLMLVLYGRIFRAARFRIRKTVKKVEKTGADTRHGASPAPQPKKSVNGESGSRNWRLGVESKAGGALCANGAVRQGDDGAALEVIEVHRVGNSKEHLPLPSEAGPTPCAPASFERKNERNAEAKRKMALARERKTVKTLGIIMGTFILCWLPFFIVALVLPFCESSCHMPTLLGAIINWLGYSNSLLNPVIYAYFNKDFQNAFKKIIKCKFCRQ

[3] = target: T2, 5-hydroxytryptamine receptor 6 (Homo sapiens, UniProt P50406); experiment: Binding affinity to 5-HT6R (unknown origin) assessed as inhibition constant
[4] = target: T3, Alpha-2C adrenergic receptor (Homo sapiens, UniProt P18825); experiment: Binding affinity to alpha2C AR (unknown origin) assessed as inhibition constant
T3 sequence (P18825 whole entry): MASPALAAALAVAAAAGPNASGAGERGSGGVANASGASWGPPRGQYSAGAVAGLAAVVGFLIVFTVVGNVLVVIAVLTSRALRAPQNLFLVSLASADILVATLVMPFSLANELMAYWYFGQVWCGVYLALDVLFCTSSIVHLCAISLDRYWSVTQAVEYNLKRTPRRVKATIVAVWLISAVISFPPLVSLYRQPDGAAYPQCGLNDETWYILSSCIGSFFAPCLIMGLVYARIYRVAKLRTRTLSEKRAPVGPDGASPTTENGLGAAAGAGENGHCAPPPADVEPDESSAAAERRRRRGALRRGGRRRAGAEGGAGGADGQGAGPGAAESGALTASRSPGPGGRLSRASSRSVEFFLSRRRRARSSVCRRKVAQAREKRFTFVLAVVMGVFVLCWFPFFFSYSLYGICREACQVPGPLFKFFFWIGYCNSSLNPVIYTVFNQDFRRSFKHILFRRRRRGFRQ

[5] = target: T2, 5-hydroxytryptamine receptor 6; experiment: Displacement of [125I]cAMP-tracer from 5-HT6R in human HeLa cells assessed as measuring cAMP level incubated for 15 mins by radioimmunoassay; type: cell-based

T2 sequence (P50406 whole entry): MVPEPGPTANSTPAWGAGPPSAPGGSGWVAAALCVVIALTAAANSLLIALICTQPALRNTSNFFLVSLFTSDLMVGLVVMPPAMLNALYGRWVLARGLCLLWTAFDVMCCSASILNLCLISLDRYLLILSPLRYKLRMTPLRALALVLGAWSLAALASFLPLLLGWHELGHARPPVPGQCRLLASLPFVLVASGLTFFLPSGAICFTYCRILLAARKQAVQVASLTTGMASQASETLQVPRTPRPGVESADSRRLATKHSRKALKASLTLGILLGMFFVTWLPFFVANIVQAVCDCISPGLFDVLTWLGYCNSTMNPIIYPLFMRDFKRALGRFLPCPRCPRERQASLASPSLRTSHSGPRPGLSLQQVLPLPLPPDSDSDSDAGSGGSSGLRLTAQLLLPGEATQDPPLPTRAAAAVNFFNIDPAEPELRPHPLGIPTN
Sequence of 5-hydroxytryptamine receptor 7 (P34969 whole entry): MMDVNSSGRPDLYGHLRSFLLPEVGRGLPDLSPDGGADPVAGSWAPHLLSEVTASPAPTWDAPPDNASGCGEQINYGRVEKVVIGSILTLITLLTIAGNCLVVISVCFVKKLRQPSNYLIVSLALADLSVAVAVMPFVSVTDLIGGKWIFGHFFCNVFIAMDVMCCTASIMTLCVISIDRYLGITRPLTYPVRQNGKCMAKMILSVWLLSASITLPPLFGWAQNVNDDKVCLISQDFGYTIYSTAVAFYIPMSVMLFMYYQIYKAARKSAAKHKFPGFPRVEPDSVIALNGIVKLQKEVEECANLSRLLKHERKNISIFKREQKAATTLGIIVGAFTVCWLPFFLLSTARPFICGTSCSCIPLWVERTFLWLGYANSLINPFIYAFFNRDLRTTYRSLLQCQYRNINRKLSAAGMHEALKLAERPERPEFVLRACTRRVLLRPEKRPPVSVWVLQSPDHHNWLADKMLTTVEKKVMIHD

| Compound | Ki [1] [nM] | Ki [2] [nM] | Ki [3] [µM] | other results |
| --- | --- | --- | --- | --- |
| CCOCC(Oc1c(C)cccc1Cl)N1CCN(c2ccccc2OC)CC1 (stereo not given) | 34 | < 1 | 9.62 | – |
| Clc1ccc(-c2nn(Cc3ccccc3)c3c2CCNCC3)cc1 [JNJ-18038683 FREE BASE] | 3 | – | – | – |
| O=C1C2C3CCC(C3)C2C(=O)N1CC1CCCCC1CN1CCN(c2nsc3ccccc23)CC1 (stereo not given) | – | – | – | Ki [4]: 11 nM |
| COc1cc(NS(=O)(=O)c2ccc(OC)c(N3CCNCC3)c2)c(Cl)cc1Cl | – | – | – | Ki [5]: 0.98 nM |
| CCN1CCCC1CNC(=O)c1cc(S(N)(=O)=O)ccc1OC (stereo not given) [SULPIRIDE] | > 3000 | – | – | – |
| CCOCC(Oc1c(C)cccc1C)N1CCN(c2ccccc2OC)CC1 (stereo not given) | 156 | 41 | 9.97 | – |
